{
  "source": "patent US5989521A",
  "about": "“Method for augmenting a decreased level of reduced glutathione in the lung” (The United States of America as represented by the …, priority 1991, dated 1999)",
  "remark": "listed apart in the source",
  "key": {"[1]": {"test_system": "alveolar macrophages", "details": "600 mg twice daily for 3 days, 1 hr after last dose, all individuals (p=0.02)", "protocol": "(§1) Ten individuals with IPF (6 male, 4 female, 46±3 yr) defined by standard clinical criteria (Crystal, R. G. et al. (1984) N. Engl. J. Med. 310: 154-166, and 310: 235-244; Turner-Warwick, M. et al. (1980) Thorax. 35: 171-180) received aerosolized GSH; 19 normal nonsmokers (14 male, 5 female, 36±3 yr) (Buhl, R. et al. (1989) Lancet. 2: 1294-1298) served as controls for GSH levels. […] An aerosol of 600 mg GSH was administered every 12 hr for 3 days. Respiratory ELF, obtained by lavage, was evaluated before therapy, and 1 hr after the first or last (sixth) aerosol, and plasma before and 1 hr after the last aerosol. Total glutathione, oxidized glutathione (GSSG) and reduced glutathione (GSH) levels in ELF and plasma were quantified as previously described (Buhl, R. et al. (1990) Proc. Natl. Acad. Sci. USA. 87:4063-4067; Buhl, R. et al. (1989) Lancet. 2: 1294-1298). Spontaneous O2^- release from adherent alveolar macrophages was measured by the reduction of ferricytochrome C (Buhl, R. et al. (1990) Proc. Natl. Acad. Sci. USA. 87:4063-4067). All data are presented as mean ± standard error of the mean. The two-tailed Student's t-test was used to compare ELF glutathione levels in normal and IPF individuals and the results presented as exact p values and degrees of freedom (df). The Wilcoxon paired nonparametric test was used to compare pre- and post-aerosol therapy ELF GSH levels and spontaneous O2^- release by alveolar macrophages, and the results presented as exact p values."}, "[2]": {"protocol": "as §1"}, "[3]": {"details": "in vivo", "source_text": "To evaluate possible toxicity of the glutathione aerosol, symptoms, physical examination, routine blood studies, chest x-ray, electrocardiogram, renal function, arterial blood gases, and tests of pulmonary function (forced vital capacity, forced expiratory volume in one second, total lung capacity, diffusing capacity) were followed carefully throughout the study. In addition, visual examination of the respiratory mucosa and analysis of differential cell count in bronchoalveolar lavage fluid were performed before the first aerosol and after administration of the last aerosol.\nStudy Design. Venous plasma and bronchoalveolar lavage fluid were obtained before GSH administration. An aerosol of 600 mg GSH in 4 ml of saline was then administered over a 25 min period twice a day for three days. Following the last aerosol, venous plasma and bronchoalveolar lavage fluid were again obtained at intervals up to 3 hr after the last aerosol. All measurements were carried out in duplicate."}, "[4]": {"details": "preparation reconstituted in 0.9% saline; cited from earlier work"}, "[5]": {"test_system": "cytotoxic T-lymphocyte cell line CT-4R", "protocol": "(§2) T-lymphocyte Proliferation Assays. Cell proliferation in the presence of pre-aerosol compared to post-aerosol concentrations of reduced glutathione was tested on the cytotoxic T-lymphocyte cell lines CT-4R and CTLL-2 (Liang, C-M. et al. (1989) J Biol Chem 264:13519-13523). In 96-well flat bottom plates were placed 50,000 cells of the respective cell lines, suspended in 200 μl Dulbecco's Modified Eagle Medium with 10% fetal calf serum, with either 150 μM or 280 μM reduced glutathione added. The IL-2 dependent cell line CTLL-2 had 0.3 units/ml IL-2 (Genzyme) added in each well. After 18 hr culture in a 10% CO2 incubator at 37° C., 0.5 μCi of ^3 H-thymidine was added for 4 hr, followed by harvesting of cells onto glass fiber filters and scintillation counting for 1 minute. All proliferation assays were done in triplicate."}, "[6]": {"test_system": "cytotoxic T-lymphocyte cell line CTLL-2", "details": "0.3 units/ml IL-2", "protocol": "as §2"}, "[7]": {"details": "intravenous administration; cited from earlier work"}, "[8]": {"details": "in vivo", "source_text": "Study Population. The study population included 13 male and 1 female HIV-seropositive individuals (average age 32±2 yr)(all data are presented as mean ± standard error of the mean; all statistical comparisons were made using the two-tailed Student's t-test). The diagnosis of HIV infection was confirmed by ELISA and Western blot analysis. All belonged to defined risk groups (13 homosexuals, 1 with heterosexual contact with an infected partner). None were smokers, 9 were untreated, and 5 were receiving azidothymidine, and two were receiving once monthly pentamidine by aerosol.\nBiologic Samples. Venous plasma and bronchoalveolar lavage fluid were obtained by standard technique (Saltini, C. et al. (1984) Am Rev Resp Dis 130:650-658). Portions of the lavage fluid were taken for glutathione assays (see below), cell counts (total cell and CD4+ and CD8+ subtypes), and for cytocentrifuge preparations for differential counts. The cells were pelleted and the supernatant was used to quantify the amount of ELF recovered using the urea method (Rennard, S.I. et al. (1986) J Appl Physiol 60:532-538).\nStudy Design. […]\nGlutathione Levels and Form. Glutathione levels in venous plasma, and bronchoalveolar lavage fluid were quantified with minor modifications of standard methods, as previously described (Buhl, R. et al (1989) Lancet 2:1294-1298).", "remark": "listed apart in the source"}},
  "note": "Where two headings read alike, the source gives them in different places.",
  "data": [
    {"smiles": "N[C@@H](CCC(=O)N[C@@H](CS)C(=O)NCC(=O)O)C(=O)O", "note": "[GSH, L-γ-glutamyl-L-cysteinyl-glycine]", "values": [
      {"measurement": "spontaneous O2- release by alveolar macrophages", "setting": "[1]", "value": "decrease"},
      {"measurement": "adverse effects associated with GSH aerosol administration", "setting": "[2]; 600 mg every 12 hr for 3 days", "value": "No adverse effects"},
      {"measurement": "ELF oxidized glutathione compared to baseline", "setting": "[2]; 600 mg twice daily for 3 days, 1 hr after last dose, all individuals (p=0.02)", "value": "significant increase"},
      {"measurement": "total glutathione in ELF versus pre-therapy", "setting": "[2]; 1 hr after the first aerosol of 600 mg GSH (p=0.005)", "value": "increased"},
      {"measurement": "plasma glutathione levels following aerosolization", "setting": "[2]; 1 hr after the last aerosol (p=0.59)", "value": "did not change"},
      {"measurement": "average level of total glutathione in ELF versus pre-therapy", "setting": "[2]; after repeated dosing for 3 days, 1 hr after last aerosol (p=0.55)", "value": "higher than the pre-therapy level, but not significantly so"},
      {"measurement": "inflammation of the lower respiratory tract", "setting": "[3]", "value": "did not result in inflammation"},
      {"measurement": "physical examination and all clinical studies", "setting": "[3]", "value": "remained stable"},
      {"measurement": "pulmonary function tests and arterial blood gases", "setting": "[3]", "value": "unchanged"},
      {"measurement": "effect of aerosolization on the form of the GSH", "setting": "[4]", "value": "did not alter the form"},
      {"measurement": "proliferation (3H-thymidine incorporation)", "setting": "[5]; 150 μM reduced glutathione (pre-therapy concentration)", "value": "7478±550", "unit": "cpm"},
      {"measurement": "proliferation (3H-thymidine incorporation)", "setting": "[5]; 280 μM reduced glutathione (post-therapy concentration)", "value": "10,752±376 cpm"},
      {"measurement": "proliferation (3H-thymidine incorporation)", "setting": "[6]; CTLL-2, 150 μM reduced glutathione", "value": "5077±69", "unit": "cpm"},
      {"measurement": "proliferation (3H-thymidine incorporation)", "setting": "[6]; CTLL-2, 280 μM reduced glutathione", "value": "5792±219", "unit": "cpm"},
      {"measurement": "serum half-life", "setting": "[7]", "value": "< 2", "unit": "min"},
      {"measurement": "mass median aerodynamic diameter of the aerosol droplets", "setting": "150 mg/ml GSH in 0.9% NaCl, nebulizer at 40 psi, laser particle-size analysis", "value": 2.8, "unit": "μm"},
      {"measurement": "glutathione in the reduced form", "setting": "in the aerosolized droplets", "value": "97.0±0.6", "unit": "%"},
      {"measurement": "glutathione in the reduced form", "setting": "pre-aerosol preparations", "value": "98.2±0.1", "unit": "%"},
      {"measurement": "oxidized glutathione as percentage of total glutathione in ELF", "setting": "[8]", "value": "44±18", "unit": "%"}
    ]}
  ]
}
